Literature values, collected in patent publication US20240148709A1, “METHODS OF TREATING EYE PAIN AND EYE DISORDERS” (Aisa Pharma, Inc., priority 2022, published 2024).

Details: oral dosing; cited from earlier work

In the case of `CCOC(=O)C1=C(COCCN)NC(C)=C(C(=O)OC)C1c1ccccc1Cl` (stereo not shown) [amlodipine], the “time to achieve maximal plasma concentration (Tmax)” value is listed as 10 h.
